Read-outs that look alike come from different tables or passages of the source.
What was measured:
CaV1.2 channels [1] = target: T1, CaV1.2 channels (Homo sapiens, UniProt Q13936); details: CaV1.2, CHO cells, Pharm protocol
CaV1.2 channels [2] = target: T1, CaV1.2 channels; details: CaV1.2, CHO cells, CiPA protocol
[3] = tested on: adult human ventricular trabeculae; assay: Ex vivo sharp electrode action potential recording (APD90) in ventricular trabeculae, 1 Hz pacing; details: for Change in APD90 (in words): over the tested concentrations; for Mean ΔAPD90 (SEM): 25 min steady 1 Hz pacing
CaV1.2 (ICaL) = CaV1.2 (ICaL) (Homo sapiens, UniProt Q13936); assay: in vitro; details: CHO cells expressing human CaV1.2/β2/α2δ
hERG channels [4] = target: T2, hERG channels (Homo sapiens, UniProt Q12809); assay: Automated patch clamp, IKr CiPA protocol, CHO cells; format: cell-based; parameters: expressed in transfected cells; host or cells: CHO (crelox)
hERG (IKr) = hERG (IKr) (Homo sapiens, UniProt Q12809); assay: Automated patch clamp, IKr Pharm (Roche in-house) protocol, CHO cells; details: human
hERG = details: cited from earlier work
CaV1.2 channels [5] = target: T1, CaV1.2 channels; assay: cell-based
CaV1.2 channels [6] = target: T1, CaV1.2 channels; assay: cell-based; remark: listed apart in the source
hERG channels [7] = target: T2, hERG channels; assay: Automated patch clamp, IKr Pharm (Roche in-house) protocol, CHO cells; details: hERG, CHO cells, Pharm protocol

T1 sequence (Q13936 whole entry): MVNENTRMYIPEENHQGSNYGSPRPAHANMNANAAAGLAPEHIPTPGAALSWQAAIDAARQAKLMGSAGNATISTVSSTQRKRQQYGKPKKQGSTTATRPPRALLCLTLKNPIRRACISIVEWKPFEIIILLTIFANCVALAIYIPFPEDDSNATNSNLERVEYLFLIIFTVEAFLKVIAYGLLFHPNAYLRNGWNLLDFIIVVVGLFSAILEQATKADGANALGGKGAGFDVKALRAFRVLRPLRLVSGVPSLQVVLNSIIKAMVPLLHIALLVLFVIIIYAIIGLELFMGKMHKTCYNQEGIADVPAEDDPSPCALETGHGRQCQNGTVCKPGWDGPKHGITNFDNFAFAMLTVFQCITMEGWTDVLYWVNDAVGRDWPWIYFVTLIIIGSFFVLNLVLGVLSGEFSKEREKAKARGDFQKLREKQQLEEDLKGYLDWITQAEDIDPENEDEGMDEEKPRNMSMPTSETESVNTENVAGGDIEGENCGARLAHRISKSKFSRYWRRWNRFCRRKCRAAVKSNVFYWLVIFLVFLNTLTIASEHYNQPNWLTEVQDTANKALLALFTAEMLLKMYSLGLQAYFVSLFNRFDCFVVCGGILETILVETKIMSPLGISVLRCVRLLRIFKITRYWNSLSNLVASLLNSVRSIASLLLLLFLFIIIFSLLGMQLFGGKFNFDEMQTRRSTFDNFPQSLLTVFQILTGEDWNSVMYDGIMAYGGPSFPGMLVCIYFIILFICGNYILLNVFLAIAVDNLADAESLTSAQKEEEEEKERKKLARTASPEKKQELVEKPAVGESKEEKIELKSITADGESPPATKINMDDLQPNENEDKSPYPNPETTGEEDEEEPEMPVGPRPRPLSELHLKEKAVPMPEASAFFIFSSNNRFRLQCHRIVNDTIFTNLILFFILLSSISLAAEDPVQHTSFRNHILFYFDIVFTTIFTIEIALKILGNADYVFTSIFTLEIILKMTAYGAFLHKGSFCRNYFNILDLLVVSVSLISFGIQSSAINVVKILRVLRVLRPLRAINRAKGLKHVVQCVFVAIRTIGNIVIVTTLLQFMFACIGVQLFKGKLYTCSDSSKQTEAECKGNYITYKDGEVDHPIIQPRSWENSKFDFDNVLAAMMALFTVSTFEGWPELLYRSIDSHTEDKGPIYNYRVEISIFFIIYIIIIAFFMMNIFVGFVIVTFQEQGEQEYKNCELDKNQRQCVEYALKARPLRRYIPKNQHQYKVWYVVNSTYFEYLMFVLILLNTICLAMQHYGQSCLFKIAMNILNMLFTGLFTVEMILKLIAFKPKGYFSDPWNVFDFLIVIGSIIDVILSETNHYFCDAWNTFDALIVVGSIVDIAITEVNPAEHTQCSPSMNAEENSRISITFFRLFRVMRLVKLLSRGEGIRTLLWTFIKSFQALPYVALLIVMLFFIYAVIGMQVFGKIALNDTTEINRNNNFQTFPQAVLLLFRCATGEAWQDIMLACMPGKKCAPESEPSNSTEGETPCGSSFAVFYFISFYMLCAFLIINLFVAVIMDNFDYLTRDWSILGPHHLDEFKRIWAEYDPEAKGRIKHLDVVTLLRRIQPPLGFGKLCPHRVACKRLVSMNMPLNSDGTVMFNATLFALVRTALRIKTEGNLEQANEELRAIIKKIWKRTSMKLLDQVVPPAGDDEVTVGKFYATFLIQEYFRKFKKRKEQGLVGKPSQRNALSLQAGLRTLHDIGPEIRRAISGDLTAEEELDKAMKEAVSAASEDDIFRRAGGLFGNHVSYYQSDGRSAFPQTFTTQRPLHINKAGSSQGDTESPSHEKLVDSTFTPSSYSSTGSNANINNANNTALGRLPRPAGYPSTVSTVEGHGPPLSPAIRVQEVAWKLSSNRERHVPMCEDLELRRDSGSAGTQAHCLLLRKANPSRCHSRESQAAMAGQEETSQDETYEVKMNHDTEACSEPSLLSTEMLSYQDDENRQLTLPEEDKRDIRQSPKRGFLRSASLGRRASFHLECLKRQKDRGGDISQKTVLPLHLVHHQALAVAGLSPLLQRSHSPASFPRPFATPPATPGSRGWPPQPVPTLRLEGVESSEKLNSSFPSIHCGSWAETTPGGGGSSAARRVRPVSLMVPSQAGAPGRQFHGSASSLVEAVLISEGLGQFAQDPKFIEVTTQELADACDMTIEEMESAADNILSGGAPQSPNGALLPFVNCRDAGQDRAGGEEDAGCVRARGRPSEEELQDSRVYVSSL
T1 sequence (Q08289 whole entry partner): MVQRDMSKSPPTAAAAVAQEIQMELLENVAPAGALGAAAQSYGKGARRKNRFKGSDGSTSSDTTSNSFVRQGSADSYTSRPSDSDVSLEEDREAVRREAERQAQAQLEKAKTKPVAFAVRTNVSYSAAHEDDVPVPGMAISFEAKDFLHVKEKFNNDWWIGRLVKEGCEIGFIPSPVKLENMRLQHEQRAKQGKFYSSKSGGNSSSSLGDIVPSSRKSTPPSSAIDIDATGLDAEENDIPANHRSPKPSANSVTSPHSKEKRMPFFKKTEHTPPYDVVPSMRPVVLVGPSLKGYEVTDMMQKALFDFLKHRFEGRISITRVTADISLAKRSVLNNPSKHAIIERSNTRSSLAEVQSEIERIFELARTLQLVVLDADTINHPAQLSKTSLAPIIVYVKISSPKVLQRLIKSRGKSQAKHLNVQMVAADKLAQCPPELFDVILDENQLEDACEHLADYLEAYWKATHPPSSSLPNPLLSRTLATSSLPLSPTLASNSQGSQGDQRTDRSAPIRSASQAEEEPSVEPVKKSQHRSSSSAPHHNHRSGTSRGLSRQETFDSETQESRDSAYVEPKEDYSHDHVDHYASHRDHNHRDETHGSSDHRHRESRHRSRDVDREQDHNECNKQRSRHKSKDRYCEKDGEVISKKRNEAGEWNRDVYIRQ
T1 sequence (P54289 25-956 partner limits assumed): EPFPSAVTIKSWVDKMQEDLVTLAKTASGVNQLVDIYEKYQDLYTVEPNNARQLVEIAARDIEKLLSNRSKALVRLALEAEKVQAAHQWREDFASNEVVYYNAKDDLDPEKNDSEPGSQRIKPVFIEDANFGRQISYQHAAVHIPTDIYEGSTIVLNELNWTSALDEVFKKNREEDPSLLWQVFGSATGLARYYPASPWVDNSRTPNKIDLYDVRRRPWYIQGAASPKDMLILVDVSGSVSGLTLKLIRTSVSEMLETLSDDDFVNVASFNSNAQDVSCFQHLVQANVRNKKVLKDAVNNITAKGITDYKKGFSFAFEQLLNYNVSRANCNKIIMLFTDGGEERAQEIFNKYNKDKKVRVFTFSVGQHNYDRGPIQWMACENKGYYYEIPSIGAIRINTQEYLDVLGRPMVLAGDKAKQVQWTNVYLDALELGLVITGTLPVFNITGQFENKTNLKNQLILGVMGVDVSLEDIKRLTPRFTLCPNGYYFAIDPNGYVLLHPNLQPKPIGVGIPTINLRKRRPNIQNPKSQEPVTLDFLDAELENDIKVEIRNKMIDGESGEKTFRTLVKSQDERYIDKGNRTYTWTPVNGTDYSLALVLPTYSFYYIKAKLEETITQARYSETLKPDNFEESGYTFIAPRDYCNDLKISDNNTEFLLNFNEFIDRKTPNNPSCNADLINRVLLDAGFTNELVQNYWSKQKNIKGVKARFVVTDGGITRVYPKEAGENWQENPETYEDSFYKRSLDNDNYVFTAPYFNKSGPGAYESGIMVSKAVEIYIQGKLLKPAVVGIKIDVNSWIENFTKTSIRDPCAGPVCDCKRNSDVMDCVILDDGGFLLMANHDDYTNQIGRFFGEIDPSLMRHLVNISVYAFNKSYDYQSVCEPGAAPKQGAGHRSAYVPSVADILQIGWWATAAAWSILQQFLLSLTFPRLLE
T1 sequence (P54289 957-1103 partner limits assumed): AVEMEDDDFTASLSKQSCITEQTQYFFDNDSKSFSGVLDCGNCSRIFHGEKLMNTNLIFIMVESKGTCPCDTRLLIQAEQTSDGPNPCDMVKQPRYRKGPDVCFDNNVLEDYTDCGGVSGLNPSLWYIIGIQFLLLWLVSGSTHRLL
T2 sequence (Q12809 whole entry): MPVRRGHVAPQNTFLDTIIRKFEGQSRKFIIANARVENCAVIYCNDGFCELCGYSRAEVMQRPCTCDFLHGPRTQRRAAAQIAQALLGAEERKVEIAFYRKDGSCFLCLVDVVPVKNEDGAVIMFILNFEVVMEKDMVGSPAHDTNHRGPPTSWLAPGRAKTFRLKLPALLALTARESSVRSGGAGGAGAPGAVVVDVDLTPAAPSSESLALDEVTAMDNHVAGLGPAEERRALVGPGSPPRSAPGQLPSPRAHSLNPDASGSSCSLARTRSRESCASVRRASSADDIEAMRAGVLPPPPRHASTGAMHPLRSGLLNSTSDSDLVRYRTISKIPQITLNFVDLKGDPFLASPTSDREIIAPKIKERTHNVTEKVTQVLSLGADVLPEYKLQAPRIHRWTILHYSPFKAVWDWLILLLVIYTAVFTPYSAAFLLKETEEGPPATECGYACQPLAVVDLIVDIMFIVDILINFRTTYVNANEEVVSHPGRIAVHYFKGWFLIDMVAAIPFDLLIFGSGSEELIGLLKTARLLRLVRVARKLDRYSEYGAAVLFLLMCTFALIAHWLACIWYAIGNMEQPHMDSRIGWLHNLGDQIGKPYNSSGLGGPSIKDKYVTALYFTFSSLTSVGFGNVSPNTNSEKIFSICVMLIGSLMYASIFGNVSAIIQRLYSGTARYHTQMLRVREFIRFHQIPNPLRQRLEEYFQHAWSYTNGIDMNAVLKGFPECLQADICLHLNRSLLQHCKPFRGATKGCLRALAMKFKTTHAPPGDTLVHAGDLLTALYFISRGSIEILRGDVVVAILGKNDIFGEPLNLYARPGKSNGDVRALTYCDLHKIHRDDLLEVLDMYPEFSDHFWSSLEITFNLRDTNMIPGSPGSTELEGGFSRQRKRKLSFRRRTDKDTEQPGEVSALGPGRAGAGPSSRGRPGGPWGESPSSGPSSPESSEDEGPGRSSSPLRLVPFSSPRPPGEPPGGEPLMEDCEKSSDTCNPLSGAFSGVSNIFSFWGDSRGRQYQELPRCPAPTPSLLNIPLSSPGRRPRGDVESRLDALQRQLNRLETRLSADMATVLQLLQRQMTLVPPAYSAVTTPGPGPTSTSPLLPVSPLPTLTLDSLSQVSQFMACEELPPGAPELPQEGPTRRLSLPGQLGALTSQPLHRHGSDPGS

CN(C)CCCN1c2ccccc2Sc2ccc(Cl)cc21 [Chlorpromazine]
ICaL Pharm Hill coefficient h (CaV1.2 channels [1]): 0.88 | ICaL CiPA Hill coefficient h (CaV1.2 channels [2]): 0.93 | Change in APD90 (in words) [3]: little or no change in APD90

CN1CCN(C2=Nc3cc(Cl)ccc3Nc3ccccc32)CC1 [Clozapine]
inhibition at 3 µM (CaV1.2 (ICaL)): 59% | IKr CiPA Hill coefficient h (hERG channels [4]; human): 0.94 | inhibition at 3 µM (hERG (IKr)): 57% | Change in APD90 (in words) [3]: little or no change in APD90

CNCCC(Oc1ccc(C(F)(F)F)cc1)c1ccccc1 (centres unmarked) [Fluoxetine]
ICaL Pharm Hill coefficient h (CaV1.2 channels [1]): 0.94 | ICaL CiPA Hill coefficient h (CaV1.2 channels [2]): 0.90 | Mean ΔAPD90 (SEM) ([3]; nominal drug conc 3 μM): –2 (5) ms | Change in APD90 (in words) [3]: little or no change in APD90

CN1CCCCC1CCN1c2ccccc2Sc2ccc([S+](C)[O-])cc21 (centres unmarked) [Mesoridazine]
ICaL Pharm Hill coefficient h (CaV1.2 channels [1]): 0.76 | ICaL CiPA Hill coefficient h (CaV1.2 channels [2]): 0.83 | IC50 (CaV1.2 channels [5]): 4.06 µM | IC50 (CaV1.2 channels [6]): 3.96 µM | IKr CiPA Hill coefficient h (hERG channels [4]; hERG, CHO cells, CiPA protocol): 0.74 | IKr Pharm Hill coefficient h (hERG channels [7]): 1 | Mean ΔAPD90 (SEM) ([3]; nominal drug conc 0.04 μM): –2 (7) ms | Change in APD90 (in words) [3]: little or no change in APD90

COC(=O)C1=C(C)NC(C)=C(C(=O)OC)C1c1ccccc1[N+](=O)[O-] [Nifedipine]
Mean ΔAPD90 (SEM) ([3]; nominal drug conc 0.03 μM): –5 (6) ms | Mean ΔAPD90 (SEM) ([3]; nominal drug conc 0.3 μM): –24 (6) ms

COc1ccc(CCN(C)CCCC(C#N)(c2ccc(OC)c(OC)c2)C(C)C)cc1OC (centres unmarked) [Verapamil]
Mean ΔAPD90 (SEM) ([3]; nominal drug conc 0.01 μM): –15 (4) ms | Mean ΔAPD90 (SEM) ([3]; nominal drug conc 0.1 μM): –19 (5) ms | Change in APD90 (in words) [3]: substantially shortened APD90

— paper PMC12251226, “Comparison of in silico predictions of action potential duration in response to inhibition of IKr and ICaL with new human ex vivo recordings” (PLOS Computational Biology, 2025)
